From the NIST ThermoML archive (doi:10.1016/j.jct.2008.01.014)
Numbers after ± are expanded uncertainties.

Conditions: Liquid, Ebulliometric method (Recirculating still)

vapor or sublimation pressure (273.15 K)	vapor or sublimation pressure (288.15 K)	vapor or sublimation pressure (303.15 K)	vapor or sublimation pressure (318.15 K)	vapor or sublimation pressure (333.15 K)	vapor or sublimation pressure (348.15 K)	SMILES
626 ± 3 kPa	972 ± 4 kPa	1442 ± 6 kPa	2063 ± 9 kPa	2875 ± 12 kPa	–	CC(F)(F)F [1,1,1-trifluoroethane]
133 ± 2 kPa	224 ± 2 kPa	353 ± 2 kPa	538 ± 3 kPa	787 ± 4 kPa	1110 ± 5 kPa	C=C(C)C [2-methylpropene]
